Patent US20240181000A1, “LGG-DERIVED PEPTIDES AND METHODS OF USE THEREOF” (Ohio State Innovation Foundation, priority 2021, published 2024)
Like-named read-outs stand apart in the source and are kept apart here. No end group written: not given here.

Assays:
[1] = tested on: multiple APEC serotypes; assay type: cell-based, E. coli
Experimental: Anti-APEC spectrum determination: Peptides (P1, P2, and P3) were tested against multiple APEC serotypes/strains to determine their spectrum of activity. Peptides were added at their MICs and the growth inhibitory activity of the peptides was determined as described above.

[2] = tested on: APEC; details: in vivo
Experimental: FIGS. 58A-58B show the APEC load after treatment 8 days dpi with LGG and 50 mg/mL of peptides in drinking water.

[3] = tested on: Salmonella Saintpaul; test: MIC against serovars; assay type: cell-based
Experimental: (§1) Peptide protection against varied Salmonella serovars: To further test the spectrum of the peptides anti-Salmonella capabilities, eight additional Salmonella serovars commonly implicated in foodborne illness (S. Anatum, S. Albany, S. Brenderup, S. Javiana, S. Heidelberg, S. Muenchen, S. Newport, S. Saintpaul) were analyzed. P1, P2, and P4 (selected based on dose response assay results) were added to the assay at their MICs to determine their effect on different serovars. Inhibition was determined using criteria from above.

[4] = tested on: Salmonella Brenderup; test: MIC against serovars; assay type: cell-based
Experimental: as §1

[5] = tested on: Salmonella Javiana; assay type: cell-based
Experimental: as §1

[6] = tested on: APEC; assay type: in vivo, chickens; details: in vivo
Source text: FIGS. 57A-57D show the APEC load of chickens (at 7 dpi [days post infection]) treated with either peptides P-1 or P-2.

[7] = tested on: APEC O78; assay type: cell-based, E. coli
Experimental: Anti-APEC activity determination: The anti-APEC activity of peptides was determined in LB broth following CLSI guidelines. Briefly, overnight grown APEC O78 was adjusted to 5×10^5 CFU/mL concentration in fresh LB media. One-hundred microliters of APEC suspension was aliquoted into the wells of the 96-well plate. Peptides were added to the wells at 6 mM and 12 mM concentrations and incubated at 37° C. in TECAN Sunrise™ absorbance microplate reader with kinetic absorbance measurement set at every 30 mins for 12 h. Sterile media and DMSO (solvent) were used as controls. The growth inhibitory activity of the peptides against APEC was calculated using the formula: (OD600 DMSO treated well−OD600 peptide treated well)/OD600 DMSO treated well×100%.
The minimum inhibitory concentration (MIC) was determined for selected peptides (P1, P2, P3, and P4) using similar assay as above. Peptides were added to the wells of the 96-well plate at 6 mM, 9 mM, 12 mM, 15 mM, and 18 mM concentrations. The peptide concentration at which there is no visible APEC growth (no OD increase) was determined as MIC. Two independent experiments were conducted.
Arginine and lysine substituted peptide analogues: The non-essential amino acid residues identified in each peptide were substituted with arginine/lysine to test whether these substitutions enhance the anti-APEC activity of peptides. The MICs of arginine and lysine substituted peptide analogues ([…] (SEQ ID NO:37), […] (SEQ ID NO:38), […] (SEQ ID NO:39), KDENK (SEQ ID NO:41), PDEKK (SEQ ID NO:42), KDEKK (SEQ ID NO:43), KHTAPK (SEQ ID NO:45), VKTAPK (SEQ ID NO:46), VHTKPK (SEQ ID NO:47), and KKTKPK (SEQ ID NO:48)) were determined as above and compared with original peptides.

NPSRQERR [Peptide P1]
Growth inhibition against APEC serotypes [1]: 95.1-100% | Bodyweight [2]: no significant effect | MIC [3]: 18 mM | MIC [4]: 18 mM | MIC [5]: 18 mM | Bodyweight [6]: no significant effect | MIC50 [7]: 14.7 mM
